Structures can show the parent of a compound that is named as a salt.
What was measured:
Type in all cases: in vivo
[1] = test system: tobacco budworm (Heliothis virescens); assay: Activity against tobacco budworm (TBW), sprayed diet cups with eggs
Procedure: (§1) In conducting evaluations of insecticidal activity, each test compound was formulated as a 400 ppm solution, and this solution was then diluted with water to give lesser concentrations. The 400 ppm solution was prepared by combining 19.2 mL of .05% solution of Tween 20 (polyoxyethylene (20) sorbitan monolaurate) in water with a solution of 8 mg of the compound in .8 mL of acetone/EtOH (9/1).
Activity against tobacco budworm (Heliothis virescens) was evaluated as follows. A general purpose lepidoptera artificial diet was diluted to half strength with a 5% non nutritive agar. 8 mL of this diet material was dispensed into each one ounce diet cup. One hour prior to treatment 18 to 20 eggs were dispensed onto the diet surface. The cups were then sprayed with formulated material through a flat-fan nozzle. […] Treated cups were air dried prior to sealing with plastic caps. The cups were held for 6 days at room temperature. Activity was then rated based on the total number of live and dead larvae, and on the size of live larvae.

[2] = test system: two spotted spider mite (Tetranychus urticae); assay: Activity against two spotted spider mite (TSSM), sprayed infested squash plants; details: RATE 400 (ppm), three days after treatment, 4320 min
Procedure: as §1
Activity against cotton aphid (Aphis gossypii) and two spotted spider mite (Tetranychus urticae) was evaluated as follows. Golden crookneck squash plants were grown to the expanded cotyledon stage (about 6 to 8 days). The plants were infested with cotton aphids and two spotted spider mites 16 to 24 hours before application of the test material by transfer of infested foliage cut from a stock colony. Immediately prior to spray application of the test material the transfer foliage is removed from the squash plants. The test is run using concentrations of 400 ppm and 50 ppm. The plants are sprayed with test solution using an atomizing sprayer at 17 psi. Both surfaces of the leaves are covered until runoff, and then allowed to dry. Activity of each compound was determined three days after treatment. Activity was rated as a percent based on the mites/aphids present in plants sprayed with solvent alone.

[3] = test system: Stomoxys calcitrans (stable fly); assay: Adult stable fly test, serum-saturated dental wick; details: readings at 24 and 48 hours, which one is reported is not stated; for Percentage of ASF killed at 100 ppm: 100 ppm in bovine serum; for Percentage of ASF killed at 10 ppm: 10 ppm in bovine serum
Procedure: The compound to be evaluated was dissolved in 1 part acetone/1 part ethanol to provide a stock solution of the compound at a concentration of 5,000 ppm; this solution was shaken for 15 minutes on a sonicator. Portions of the stock solution were placed in 15 ml test tubes, and portions of bovine serum were added to provide the desired dilution of the test compound. A dental wick was placed in each test tube and the serum allowed to saturate the wick.
For the adult stable fly test, the saturated wick was placed on a filter paper in a petri dish, and approximately 10 chilled live, hungry stable flies were placed on the center of the dish bottom. The dish was covered and allowed to incubate at 27°C and 60% relative humidity for 48 hours. Mortality readings were made at each of 24 and 48 hours, and adjusted for any mortality in the vehicle control to determine percent efficacy against adult stable fly.

Compound	% MORTALITY ([1]; RATE 400 (ppm), 6 days)	Percentage of ASF killed at 100 ppm [3]	other results
5,6-Dihydro Derivative of Compound 9-O-(2,3,4-Tri-O-ethyl-α-L-rhamnosyl) Spinosyn A 9-Psa [Example A1]	100%		% MORTALITY [2]: 100%
CCC1CCCC(OC2CCC(N(C)C)C(C)O2)C(C)C(=O)C2=CC3C4CC(OC5OC(C)C(OC)C(OC)C5OC)CC4C[C@H](O)C3C2CC(=O)O1 (stereo partly drawn) [Example F15a, (5S)-5,6-dihydro-5-hydroxy Spinosyn A]	100%		
CC[C@H]1CCC[C@H](O[C@H]2CC[C@H](N(C)C)[C@@H](C)O2)[C@@H](C)C(=O)C2=C[C@H]3[C@@H]4C[C@H](O[C@@H]5O[C@@H](C)[C@H](OC)[C@@H](OC)[C@H]5OC)C[C@H]4CC[C@H]3[C@@H]2CC(=O)O1 [Example F23, 5,6-Dihydro Spinosyn A Hemiglutarate salt]	100%	100%	% MORTALITY [2]: 100%
CC[C@H]1CCC[C@H](O[C@H]2CC[C@H](NC)[C@@H](C)O2)[C@@H](C)C(=O)C2=C[C@H]3[C@@H]4C[C@H](O[C@@H]5O[C@@H](C)[C@H](OC)[C@@H](OC)[C@H]5OC)C[C@H]4CC[C@H]3[C@@H]2CC(=O)O1 [Example F24, 5,6-Dihydro Spinosyn B]	100%	100%	% MORTALITY [2]: 100%
CCC1CCCC(OC2CCC(N(C)C)C(C)O2)C(C)C(=O)C2=CC3C4CC(OC5OC(C)C(OC)C(OC)C5OC(=O)c5ccc(C(F)(F)F)cc5)CC4[C@@]4(C)O[C@H]4C3C2CC(=O)O1 (stereo partly drawn) [Example A2, (5S,6R)-Epoxy-2'-O-(p-trifluoromethyl)benzoyl Spinosyn Q]	100%	100%	
(5R,6R)-6-Bromo-5-hydroxy Spinosyn J [Example F18]	100%	100%	
CCCOC1C(OC)C(C)OC(OC2CC3CCC4C5CC(=O)OC(CC)CCCC(OC6CCC(N(C)C)C(C)O6)C(C)C(=O)C5=CC4C3C2)C1OC (stereo not shown) [Example A4, 5,6-Dihydro-3'-O-n-propyl Spinosyn J]	100%		% MORTALITY [2]: 100%
CC[C@H]1CCC[C@H](O[C@H]2CC[C@H](N(C)C)[C@@H](C)O2)[C@@H](C)C(=O)[C@@H]2C[C@@H]3[C@@H](CC[C@@H]4C[C@@H](O[C@@H]5O[C@@H](C)[C@H](OC)[C@@H](OC)[C@H]5OC)C[C@H]43)[C@@H]2CC(=O)O1 [Example D2, (14R)-5,6,13,14-Tetrahydro Spinosyn A]		100%	Percentage of ASF killed at 10 ppm [3]: <50%
CCC1CCCC(O[Si](C)(C)C)C(C)C(=O)C2=CC3C4CC(OC5OC(C)C(OC)C(OC)C5OC)CC4C4OC4C3C2CC(=O)O1 [Example E2, (5S,6R)-5,6-Epoxy-17-O-trimethylsilyl Spinosyn A 17-Psa]			% MORTALITY ([1]; RATE 80 (unit not given), 8640 min): 35%
CCCOC1C(OC)C(C)OC(OC2CC3CCC4C5CC(=O)OC(CC)CCCC(OC6CCC(N(C)C)C(C)O6)C(C)C(=O)C5=CC4C3C2)C1OC.CCCOC1C(OC)C(C)OC(OC2CC3CCC4C5CC(=O)OC(CC)CCCC(OC6CCC(N(C)C)C(C)O6)C(C)C(=O)C5=CC4C3C2)C1OC.O=C(O)CCCC(=O)O (stereo not shown) [Example A6, 5,6-Dihydro-3'-O-n-propyl Spinosyn J Hemiglutarate salt]	100%	100%	% MORTALITY [2]: 100%
dichloroketene acetal of (5S,6R)-5,6-dihydroxy Spinosyn A [Example F13a]	100%		
(5R,6R)-5,6-dibromo Spinosyn B [Example F11b]	100%	100%	
CCC1CCCC(OC2CCC(N(C)C)C(C)O2)C(C)C(=O)C2=CC3C4CC(OC5OC(C)C(OC)C(OC)C5O)CC4CCC3C2CC(=O)O1 (stereo not shown) [Example F22, 5,6-Dihydro Spinosyn H]	100%	100%	
CC[C@H]1CCC[C@H](O)[C@@H](C)C(=O)C2=C[C@H]3[C@@H]4C[C@H](O[C@@H]5O[C@@H](C)[C@H](OC)[C@@H](OC)[C@H]5OC)C[C@H]4C(Br)C(Br)[C@H]3[C@@H]2CC(=O)O1 (stereo partly shown) [Example F5, 5,6-Dibromo Spinosyn A 17-Psa]			Percentage of ASF killed at 10 ppm [3]: <50%
CCC1CCCC(OC2CCC(N(C)C)C(C)O2)C(C)C(=O)C2=CC3C4CC(OC5OC(C)C(OC)C(OC)C5OC)CC4[C@@H](Br)[C@H](Br)C3C2CC(=O)O1 (stereo partly drawn) [Example F14, (5R,6R)-5,6-Dibromo Spinosyn A]	60%	100%	
CC[C@H]1CCC[C@H](O[C@H]2CCC(=O)[C@@H](C)O2)[C@@H](C)C(=O)C2=C[C@H]3[C@@H]4C[C@H](O[C@@H]5O[C@@H](C)[C@H](OC)[C@@H](OC)[C@H]5OC)C[C@H]4[C@@H](Br)[C@H](Br)[C@H]3[C@@H]2CC(=O)O1 [Example F11a, (5R,6R)-5,6-dibromo-4''-keto Spinosyn A]		<50%	
CCC1CCCC(OC2CCC(N(C)C)C(C)O2)C(C)C(=O)C2=CC3C4CC(OC5OC(C)C(OC)C(OC)C5OC)CC4[C@@H](OC(=O)C(Cl)(Cl)Cl)[C@@H](OC(=O)C(Cl)(Cl)Cl)C3C2CC(=O)O1 (stereo partly drawn) [Example F13b, (5S,6R)-5,6-bis(trichloroacetoxy) Spinosyn A]	60%		
CCC1CCCC(OC2CCC(N(C)C)C(C)O2)C(C)C(=O)C2=CC3C4CC(OC5OC(C)C(OC)C(OC)C5OC)CC4[C@@H](SC)[C@H](OC(C)=O)C3C2CC(=O)O1 (stereo partly drawn) [Example F16, (5R,6R)-5-Acetoxy-6-thiomethoxy Spinosyn A]	100%	100%	
CCCOC1C(OC2CC3CCC4C5CC(=O)OC(CC)CCCC(OC6CCC(N(C)C)C(C)O6)C(C)C(=O)C5=CC4C3C2)OC(C)C(OC)C1OC (stereo not shown) [Example A8, 5,6-Dihydro-2'-O-n-propyl Spinosyn H]	100%	100%	% MORTALITY [2]: 100%
CCOC1C(OC)C(C)OC(OC2CC3CCC4C5CC(=O)OC(CC)CCCC(OC6CCC(N(C)C)C(C)O6)C(C)C(=O)C5=CC4C3C2)C1OC (stereo not shown) [Example A3, 5,6-Dihydro-3'-O-ethyl Spinosyn J]	100%		% MORTALITY [2]: 100%
CCC1CCCC(OC2CCC(N(C)C)C(C)O2)C(C)C(=O)[C@H]2CC3C4CC(OC5OC(C)C(OC)CC5OC)CC4CCC3C2CC(=O)O1 (stereo partly drawn) [Example D3, (14S)-5,6,13,14-Tetrahydro-3'-deoxy Spinosyn J]		100%	% MORTALITY ([1]; RATE 64 (unit not given), 8640 min): 95%
5,6-Dihydro Spinosyn J [Example F21]	100%	100%	
CCC1CCCC(OC2CCC(N(C)C)C(C)O2)C(C)C(=O)C2=CC3C4CC(OC5OC(C)C(OC)C(OC)C5OC)CC4[C@@]4(C)O[C@H]4C3C2CC(=O)O1 (stereo partly drawn) [Example F8a, (5S,6R)-Epoxy Spinosyn D]	100%		% MORTALITY [2]: 90%
(5S,6R)-Epoxy-Spinosyn Q [Example F25]	100%		
CCC1CCCC(OC2CCC(N(C)C)C(C)O2)C(C)C(=O)C2=CC3C4CC(O)CC4CCC3C2CC(=O)O1 (stereo not shown) [Example F19, 5,6-Dihydro Spinosyn A 9-Psa]	100%		
CC[C@H]1CCC[C@H](O)[C@@H](C)C(=O)C2=C[C@H]3[C@@H]4C[C@H](O[C@@H]5O[C@@H](C)[C@H](OC)[C@@H](OC)[C@H]5OC)C[C@H]4CC[C@H]3[C@@H]2CC(=O)O1 [Example F20, 5,6-Dihydro Spinosyn A 17-Psa]		<50%	
CCC1CCCC(OC2CCC(N(C)C)C(C)O2)C(C)C(=O)C2=CC3C4CC(OC5OC(C)C(OC)C(OC)C5OC)CC4[C@@H](S(C)(=O)=O)[C@H](OC(C)=O)C3C2CC(=O)O1 (stereo partly drawn) [Example F17, (5R,6R)-5-Acetoxy-6-methylsulfonyl Spinosyn A]	100%	100%	
5,6-cis Dihydroxy-5,6-dihydro Spinosyn B [Example F12]	100%	100%	
CCCCOC1C(OC)C(C)OC(OC2CC3CCC4C5CC(=O)OC(CC)CCCC(OC6CCC(N(C)C)C(C)O6)C(C)C(=O)C5=CC4C3C2)C1OC (stereo not shown) [Example A5, 5,6-Dihydro-3'-O-n-butyl Spinosyn J]	100%		
